# According to US12077503B2, “Substituted cyclic amides and their use as herbicides” (FMC CORPORATION, priority 2015, dated 2024):
# Legend:
# Experiment in all cases: Test D preemergence
# Type in all cases: in vivo
# Conditions in all cases: scale 0 to 100
# [1] = test system: oilseed rape (Brassica napus)
# Method in brief: (§1)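 Seeds of the weed and crop species were sown in silt loam soil and treated preemergence with compounds formulated in a non-phytotoxic solvent mixture containing surfactant. After about 21 d in a controlled growth environment, plants were visually rated against untreated controls on a 0–100 scale (0 = no effect, 100 = complete control).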
# [2] = test system: pigweed (Amaranthus retroflexus)
# Method in brief: as §1
# [3] = test system: radish, wild (wild radish, Raphanus raphanistrum)
# Method in brief: as §1
# [4] = test system: deadnettle (henbit deadnettle, Lamium amplexicaule)
# Method in brief: as §1
# [5] = test system: lambsquarters (Chenopodium album)
# Method in brief: as §1
# [6] = test system: bluegrass (annual bluegrass, Poa annua)
# Method in brief: as §1
# [7] = test system: chamomile (scentless chamomile, Matricaria inodora)
# Method in brief: as §1
# Kochia (Kochia scoparia) = test system: Kochia (Kochia scoparia)
# Method in brief: as §1
# [8] = test system: wheat, winter (winter wheat, Triticum aestivum)
# Method in brief: as §1
# [9] = test system: windgrass (Apera spica-venti)
# Method in brief: as §1
# [10] = test system: barley, spring (spring barley, Hordeum vulgare)
# Method in brief: as §1
# [11] = test system: Russian thistle (Salsola kali)
# Method in brief: as §1
# [12] = test system: chickweed (common chickweed, Stellaria media)
# Method in brief: as §1
# [13] = test system: oat, wild (wild oat, Avena fatua)
# Method in brief: as §1
# [14] = test system: canarygrass (littleseed canarygrass, Phalaris minor)
# Method in brief: as §1
# [15] = test system: mustard, wild (wild mustard, Sinapis arvensis)
# Method in brief: as §1
# [16] = test system: barley, winter (winter barley Hordeum vulgare)
# Method in brief: as §1
# [17] = test system: foxtail, green (green foxtail, Setaria viridis)
# Method in brief: as §1
# [18] = test system: Galium (catchweed bedstraw, Galium aparine)
# Method in brief: as §1
# [19] = test system: bromegrass, downy (downy bromegrass, Bromus tectorum)
# Method in brief: as §1
# [20] = test system: field violet (Viola arvensis)
# Method in brief: as §1
# [21] = test system: ryegrass, Italian (Italian ryegrass, Lolium multiflorum)
# Method in brief: as §1
compound,measurement,setting,value
CN1CC(c2cccc(C(F)(F)F)c2)C(C(=O)Nc2cccc(F)c2F)C1=O (stereo not drawn) [Compound 636],Plant response rating: Oilseed Rape,[1]; 31 g ai/ha,10
same,Plant response rating: Oilseed Rape,[1]; 62 g ai/ha,30
same,Plant response rating: Oilseed Rape,[1]; 125 g ai/ha,60
same,Plant response rating: Oilseed Rape,[1]; 250 g ai/ha,65
same,Plant response rating: Pigweed,[2]; 31 g ai/ha,0
same,Plant response rating: Pigweed,[2]; 62 g ai/ha,10
same,Plant response rating: Pigweed,[2]; 125 g ai/ha,50
same,Plant response rating: Pigweed,[2]; 250 g ai/ha,85
same,"Plant response rating: Radish, Wild",[3]; 62 g ai/ha,25
same,"Plant response rating: Radish, Wild",[3]; 125 g ai/ha,65
same,"Plant response rating: Radish, Wild",[3]; 250 g ai/ha,100
same,Plant response rating: Deadnettle,[4]; 31 g ai/ha,0
same,Plant response rating: Deadnettle,[4]; 62 g ai/ha,35
same,Plant response rating: Deadnettle,[4]; 125 g ai/ha,70
same,Plant response rating: Deadnettle,[4]; 250 g ai/ha,75
same,Plant response rating: Lambsquarters,[5]; 31 g ai/ha,35
same,Plant response rating: Lambsquarters,[5]; 62 g ai/ha,70
same,Plant response rating: Lambsquarters,[5]; 125 g ai/ha,80
same,Plant response rating: Lambsquarters,[5]; 250 g ai/ha,90
same,Plant response rating: Bluegrass,[6]; 31 g ai/ha,35
same,Plant response rating: Bluegrass,[6]; 62 g ai/ha,95
same,Plant response rating: Bluegrass,[6]; 125 g ai/ha,90
same,Plant response rating: Bluegrass,[6]; 250 g ai/ha,100
same,Plant response rating: Chamomile,[7]; 31 g ai/ha,90
same,Plant response rating: Chamomile,[7]; 62 g ai/ha,100
same,Plant response rating: Chamomile,[7]; 125 g ai/ha,100
same,Plant response rating: Chamomile,[7]; 250 g ai/ha,100
same,Plant response rating: Kochia,Kochia (Kochia scoparia); 31 g ai/ha,5
same,Plant response rating: Kochia,Kochia (Kochia scoparia); 62 g ai/ha,25
same,Plant response rating: Kochia,Kochia (Kochia scoparia); 125 g ai/ha,75
same,Plant response rating: Kochia,Kochia (Kochia scoparia); 250 g ai/ha,75
same,"Plant response rating: Wheat, Winter",[8]; 31 g ai/ha,5
same,"Plant response rating: Wheat, Winter",[8]; 62 g ai/ha,60
same,"Plant response rating: Wheat, Winter",[8]; 125 g ai/ha,70
same,"Plant response rating: Wheat, Winter",[8]; 250 g ai/ha,65
same,Plant response rating: Windgrass,[9]; 31 g ai/ha,85
same,Plant response rating: Windgrass,[9]; 62 g ai/ha,95
same,Plant response rating: Windgrass,[9]; 125 g ai/ha,95
same,Plant response rating: Windgrass,[9]; 250 g ai/ha,98
same,"Plant response rating: Barley, Spring",[10]; 31 g ai/ha,35
same,"Plant response rating: Barley, Spring",[10]; 62 g ai/ha,55
same,"Plant response rating: Barley, Spring",[10]; 125 g ai/ha,60
same,"Plant response rating: Barley, Spring",[10]; 250 g ai/ha,75
same,Plant response rating: Russian Thistle,[11]; 31 g ai/ha,0
same,Plant response rating: Russian Thistle,[11]; 62 g ai/ha,40
same,Plant response rating: Russian Thistle,[11]; 125 g ai/ha,50
same,Plant response rating: Russian Thistle,[11]; 250 g ai/ha,60
same,Plant response rating: Chickweed,[12]; 31 g ai/ha,85
same,Plant response rating: Chickweed,[12]; 62 g ai/ha,85
same,Plant response rating: Chickweed,[12]; 125 g ai/ha,90
same,Plant response rating: Chickweed,[12]; 250 g ai/ha,90
same,"Plant response rating: Oat, Wild",[13]; 31 g ai/ha,5
same,"Plant response rating: Oat, Wild",[13]; 62 g ai/ha,30
same,"Plant response rating: Oat, Wild",[13]; 125 g ai/ha,80
same,"Plant response rating: Oat, Wild",[13]; 250 g ai/ha,85
same,Plant response rating: Canarygrass,[14]; 31 g ai/ha,65
same,Plant response rating: Canarygrass,[14]; 62 g ai/ha,85
same,Plant response rating: Canarygrass,[14]; 125 g ai/ha,90
same,Plant response rating: Canarygrass,[14]; 250 g ai/ha,95
same,"Plant response rating: Mustard, Wild",[15]; 31 g ai/ha,0
same,"Plant response rating: Mustard, Wild",[15]; 62 g ai/ha,15
same,"Plant response rating: Mustard, Wild",[15]; 125 g ai/ha,15
same,"Plant response rating: Mustard, Wild",[15]; 250 g ai/ha,85
same,"Plant response rating: Barley, Winter",[16]; 31 g ai/ha,5
same,"Plant response rating: Barley, Winter",[16]; 62 g ai/ha,45
same,"Plant response rating: Barley, Winter",[16]; 125 g ai/ha,55
same,"Plant response rating: Barley, Winter",[16]; 250 g ai/ha,80
same,"Plant response rating: Foxtail, Green",[17]; 31 g ai/ha,100
same,"Plant response rating: Foxtail, Green",[17]; 62 g ai/ha,100
same,"Plant response rating: Foxtail, Green",[17]; 125 g ai/ha,100
same,"Plant response rating: Foxtail, Green",[17]; 250 g ai/ha,100
same,Plant response rating: Galium,[18]; 31 g ai/ha,0
same,Plant response rating: Galium,[18]; 62 g ai/ha,15
same,Plant response rating: Galium,[18]; 125 g ai/ha,30
same,Plant response rating: Galium,[18]; 250 g ai/ha,60
same,"Plant response rating: Bromegrass, Downy",[19]; 31 g ai/ha,10
same,"Plant response rating: Bromegrass, Downy",[19]; 62 g ai/ha,20
same,"Plant response rating: Bromegrass, Downy",[19]; 125 g ai/ha,55
same,"Plant response rating: Bromegrass, Downy",[19]; 250 g ai/ha,80
same,Plant response rating: Field Violet,[20]; 31 g ai/ha,0
same,Plant response rating: Field Violet,[20]; 62 g ai/ha,0
same,Plant response rating: Field Violet,[20]; 125 g ai/ha,35
same,Plant response rating: Field Violet,[20]; 250 g ai/ha,85
same,"Plant response rating: Ryegrass, Italian",[21]; 31 g ai/ha,15
same,"Plant response rating: Ryegrass, Italian",[21]; 62 g ai/ha,40
same,"Plant response rating: Ryegrass, Italian",[21]; 125 g ai/ha,65
same,"Plant response rating: Ryegrass, Italian",[21]; 250 g ai/ha,80
